Activity calls are given as the source filed them. The calls are words filed in the database; no cut-off is given here.
Tests used:
[1] = Metabolic stability in human liver microsomes assessed as half-life at 10 uM preincubated for 5 mins followed by NADPH addition and measured upto 60 mins by HPLC analysis; format: ADME, Microsome; conditions: time < 65 min
[2] = Metabolic stability in mouse liver microsomes assessed as intrinsic clearance at 10 uM preincubated for 5 mins followed by NADPH addition and measured upto 60 mins by HPLC analysis; format: ADME, Microsome; conditions: time < 65 min, read-out: CLH
[3] = Metabolic stability in Sprague-Dawley rat liver microsomes assessed as half-life at 10 uM preincubated for 5 mins followed by NADPH addition and measured upto 60 mins by HPLC analysis; format: ADME, Microsome; conditions: time < 65 min
PC-9 [4] = test: Induction of cell cycle arrest in human PC-9 cells expressing EGFR L858R/T790M/C797S mutant assessed as S phase cells at 0.1 to 1 uM incubated for 24 hrs by PI staining based flow cytometric analysis (reference value: 34.5 +/- 3.3 %); format: functional; conditions: dose 0.1-1 µM
PC-9 [5] = test: Induction of apoptosis in human PC-9 cells expressing EGFR L858R/T790M/C797S mutant assessed as necrotic cells at 0.1 uM incubated for 48 hrs by Annexin V-FITC/PI staining based flow cytometric analysis (reference value: 0.540 %); format: functional
PC-9 [6] = test: Antitumor activity against human PC-9 cells expressing EGFR L858R/T790M/C797S mutant xenografted in BALB/c nude mouse assessed as reduction in tumor volume at 10 to 40 mg/kg, po administered for 18 days; format: functional, organism-based; conditions: dose 10-40 mg/kg, time 18.0 day
PC-9 [7] = test: Induction of apoptosis in human PC-9 cells expressing EGFR L858R/T790M/C797S mutant assessed as necrotic cells at 1 uM incubated for 48 hrs by Annexin V-FITC/PI staining based flow cytometric analysis (reference value: 0.540 %); format: functional
PC-9 [8] = test: Induction of apoptosis in human PC-9 cells expressing EGFR L858R/T790M/C797S mutant assessed as necrotic cells at 0.5 uM incubated for 48 hrs by Annexin V-FITC/PI staining based flow cytometric analysis (reference value: 0.540 %); format: functional
PC-9 [9] = test: cells; conditions: Homo sapiens, PC-9, 72 h
Description: Cytotoxicity against human PC-9 cells expressing EGFR Del19 mutant assessed as inhibition of cell proliferation incubated for 72 hrs by CCK8 assay

PC-9 [10] = test: Induction of apoptosis in human PC-9 cells expressing EGFR L858R/T790M/C797S mutant assessed as late apoptotic cells at 0.5 uM incubated for 48 hrs by Annexin V-FITC/PI staining based flow cytometric analysis (reference value: 0.360 %); format: functional
PC-9 [11] = test: Induction of apoptosis in human PC-9 cells expressing EGFR Del19/T790M/C797S mutant assessed as early apoptotic cells at 1 uM incubated for 48 hrs by Annexin V-FITC/PI staining based flow cytometric analysis (reference value: 0.050 %); format: functional
PC-9 [12] = test: Induction of apoptosis in human PC-9 cells expressing EGFR Del19/T790M/C797S mutant assessed as necrotic cells at 0.1 uM incubated for 48 hrs by Annexin V-FITC/PI staining based flow cytometric analysis (reference value: 0.090 %); format: functional
[13] = Metabolic stability in dog liver microsomes assessed as intrinsic clearance at 10 uM preincubated for 5 mins followed by NADPH addition and measured upto 60 mins by HPLC analysis; format: ADME, Canis lupus familiaris, Microsome; conditions: time < 65 min, read-out: CLH
PC-9 [14] = test: Induction of apoptosis in human PC-9 cells expressing EGFR Del19/T790M/C797S mutant assessed as late apoptotic cells at 0.5 uM incubated for 48 hrs by Annexin V-FITC/PI staining based flow cytometric analysis (reference value: 0.040 %); format: functional
PC-9 [15] = test: Induction of cell cycle arrest in human PC-9 cells expressing EGFR L858R/T790M/C797S mutant assessed as accumulation of cells at G2/M phase at 1 uM incubated for 24 hrs by PI staining based flow cytometric analysis; format: functional
PC-9 [16] = test: Antitumor activity against human PC-9 cells expressing EGFR L858R/T790M/C797S mutant xenografted in BALB/c nude mouse assessed as tumor growth inhibition at 40 mg/kg, po administered for 18 days relative to control; format: functional; conditions: Mus musculus, PC-9, 432 h, time 18 day, read-out: TGI
PC-9 [17] = test: Antitumor activity against human PC-9 cells expressing EGFR L858R/T790M/C797S mutant xenografted in BALB/c nude mouse assessed as average tumor weight at 40 mg/kg, po administered for 18 days (reference value: 0.83 g); format: functional; conditions: time 18 day
PC-9 [18] = test: Induction of apoptosis in human PC-9 cells expressing EGFR Del19/T790M/C797S mutant assessed as necrotic cells at 0.5 uM incubated for 48 hrs by Annexin V-FITC/PI staining based flow cytometric analysis (reference value: 0.090 %); format: functional
[19] = Metabolic stability in rabbit liver microsomes assessed as half-life at 10 uM preincubated for 5 mins followed by NADPH addition and measured upto 60 mins by HPLC analysis; format: ADME, Oryctolagus cuniculus, Microsome; conditions: time < 65 min
[20] = Metabolic stability in dog liver microsomes assessed as half-life at 10 uM preincubated for 5 mins followed by NADPH addition and measured upto 60 mins by HPLC analysis; format: ADME, Canis lupus familiaris, Microsome; conditions: time < 65 min
PC-9 [21] = test: cells; conditions: Homo sapiens, PC-9, 72 h; remark: listed apart in the source
Description: Cytotoxicity against human PC-9 cells expressing EGFR Del19/T790M/C797S mutant assessed as inhibition of cell proliferation incubated for 72 hrs by CCK8 assay

PC-9 [22] = test: Induction of cell cycle arrest in human PC-9 cells expressing EGFR L858R/T790M/C797S mutant assessed as accumulation of cells at G0/G1 phase at low dose incubated for 24 hrs by PI staining based flow cytometric analysis; format: functional
PC-9 [23] = test: Induction of cell cycle arrest in human PC-9 cells expressing EGFR Del19/T790M/C797S mutant assessed as S phase cells at 0.1 to 1 uM incubated for 24 hrs by PI staining based flow cytometric analysis (reference value: 32.4 +/- 1.1 %); format: functional; conditions: dose 0.1-1 µM
PC-9 [24] = test: Induction of apoptosis in human PC-9 cells expressing EGFR Del19/T790M/C797S mutant assessed as late apoptotic cells at 1 uM incubated for 48 hrs by Annexin V-FITC/PI staining based flow cytometric analysis (reference value: 0.040 %); format: functional
PC-9 [25] = test: Induction of apoptosis in human PC-9 cells expressing EGFR Del19/T790M/C797S mutant assessed as late apoptotic cells at 0.1 uM incubated for 48 hrs by Annexin V-FITC/PI staining based flow cytometric analysis (reference value: 0.040 %); format: functional

C=CC(=O)Nc1cc(Nc2ncc(F)c(-c3ccc4cc(C(=O)NC)n(C(C)C)c4c3)n2)ccc1N1CCN(C)CC1
half-life at 10 µM [1]: 3.85 h
microsomal CLint at 10 µM [2]: 56 µL/min/mg
half-life at 10 µM [3]: 1.48 h
Activity (PC-9 [4]): 15.9%
Activity (PC-9 [5]): 5.84%
Activity (PC-9 [6]): Active
Activity (PC-9 [7]): 0.91%
Activity (PC-9 [8]): 1.77%
IC50 (PC-9 [9]): 144 nM
Activity (PC-9 [10]): 6.77%
Activity (PC-9 [11]): 11.6%
Activity (PC-9 [12]): 3.55%
microsomal CLint at 10 µM [13]: 18 µL/min/mg
Activity (PC-9 [14]): 4.19%
Activity (PC-9 [15]): Active
inhibition in vivo at 40 mg/kg (PC-9 [16]): 70.6%
Activity (PC-9 [17]): 0.31 g
Activity (PC-9 [18]): 1.2%
half-life at 10 µM [19]: 2.36 h
half-life at 10 µM [20]: 4.28 h
IC50 (PC-9 [21]): 201 nM
Activity (PC-9 [22]): Active
Activity (PC-9 [23]): 15.6%
Activity (PC-9 [24]): 8.3%
Activity (PC-9 [25]): 7.34%

Reference: ChEMBL document CHEMBL5614390, “Novel EGFR inhibitors against resistant L858R/T790M/C797S mutant for intervention of non-small cell lung cancer” (Eur J Med Chem, 2024)
